Results taken from patent publication US7476679B2, “Octahydroisoquinoline compounds as opioid receptor modulators” (Research Triangle Institute, priority 2005, dated 2009).
Like-named read-outs stand apart in the source and are kept apart here.

Legend:
Type in all cases: biochemical
[1] = molecular target: T1, human mu opioid receptor (Homo sapiens, UniProt P35372); assay: Inhibition of agonist (DAMGO) stimulated [35S]GTPγS binding, apparent affinity (Ke)
T1 construct: expressed in transfected cells; host or cells: CHO cells (membrane homogenates)
Method: (§1) Determination of apparent affinity (Ke). The ability of a single concentration of test compound to shift an agonist dose response curve to the right was used to determine its Ke. Agonist activity was determined using [^35S]GTP-γ-S binding in CHO cell membrane homogenates expressing either the human mu, kappa or delta opioid receptor. The subtype selective agonists (D-Ala^2, MePhe^4, Gly-ol^5)enkephalin (DAMGO, mu receptor), D-Pen2,D-Pen5]-enkephalin (DPDPE, delta receptor) or U69,593 (kappa receptor) were run as appropriate. The assays were run in triplicate in 1.4 mL polypropylene tubes (Matrix Technologies, Hudson, N.H.) in 96-well format. Each assay tube contained membrane homogenate, one of seven concentrations of agonist or agonist+test compound, 0.1 nM [^35S]GTP-γ-S and 10 μM GDP in a 50 mM HEPES buffer (pH 7.4). Basal [^35S]GTP-γ-S binding was determined in samples without agonist or test compound. All samples were incubated at room temperature for one hour after which bound radioligand was separated from free via rapid vacuum filtration over GF-B filters with a Brandel Scientific (Gaithersburg, Md.) 96-well harvester. Bound radioactivity was determined with a TopCount 12-detector instrument (Packard Instruments) using standard scintillation counting techniques. The binding data from each assay plate were normalized to basal binding prior to analysis. The EC50s were calculated from a three-parameter logistic curve fit to the data with Prism (version 3.0, GraphPad Software, Inc., San Diego, Calif.).

[2] = molecular target: T2, human delta opioid receptor (Homo sapiens, UniProt P41143); assay: Inhibition of agonist (DPDPE) stimulated [35S]GTPγS binding, apparent affinity (Ke)
T2 construct: expressed in transfected cells; host or cells: CHO cells (membrane homogenates)
Method: as §1

[3] = molecular target: T3, human kappa opioid receptor (Homo sapiens, UniProt P41145); assay: Inhibition of agonist (U69,593) stimulated [35S]GTPγS binding, apparent affinity (Ke); conditions: for δ/κ / μ/κ: ratio of Ke values; for δ/κ: δ over κ; for μ/κ: μ over κ
T3 construct: expressed in transfected cells; host or cells: CHO cells (membrane homogenates)
Method: as §1

[4] = cloned human μ receptor, CHO cell membrane homogenates, agonist DAMGO, 10 μM GDP, mean ± SE, read-out: μ, DAMGO Ke
[5] = cloned human κ receptor, CHO cell membrane homogenates, agonist U69,593, 10 μM GDP, mean ± SE, read-out: κ, U69,593 Ke
[6] = cloned human μ receptor, CHO cell membrane homogenates, agonist DAMGO, 10 μM GDP, mean ± SE
[7] = cloned human δ receptor, CHO cell membrane homogenates, agonist DPDPE, 10 μM GDP, mean ± SE
[8] = cloned human κ receptor, CHO cell membrane homogenates, agonist U69,593, 10 μM GDP, mean ± SE

T1 sequence (P35372 whole entry): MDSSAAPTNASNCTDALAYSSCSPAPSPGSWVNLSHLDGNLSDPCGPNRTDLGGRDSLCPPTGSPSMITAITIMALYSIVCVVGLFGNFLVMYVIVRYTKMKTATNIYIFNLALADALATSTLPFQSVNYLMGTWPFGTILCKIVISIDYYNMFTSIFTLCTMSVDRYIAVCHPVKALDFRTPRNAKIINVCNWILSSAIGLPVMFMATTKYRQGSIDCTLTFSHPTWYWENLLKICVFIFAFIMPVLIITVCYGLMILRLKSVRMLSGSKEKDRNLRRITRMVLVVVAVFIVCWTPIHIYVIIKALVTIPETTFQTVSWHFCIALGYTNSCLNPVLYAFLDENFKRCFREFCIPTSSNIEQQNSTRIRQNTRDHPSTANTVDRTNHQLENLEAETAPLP
T3 sequence (P41145 whole entry): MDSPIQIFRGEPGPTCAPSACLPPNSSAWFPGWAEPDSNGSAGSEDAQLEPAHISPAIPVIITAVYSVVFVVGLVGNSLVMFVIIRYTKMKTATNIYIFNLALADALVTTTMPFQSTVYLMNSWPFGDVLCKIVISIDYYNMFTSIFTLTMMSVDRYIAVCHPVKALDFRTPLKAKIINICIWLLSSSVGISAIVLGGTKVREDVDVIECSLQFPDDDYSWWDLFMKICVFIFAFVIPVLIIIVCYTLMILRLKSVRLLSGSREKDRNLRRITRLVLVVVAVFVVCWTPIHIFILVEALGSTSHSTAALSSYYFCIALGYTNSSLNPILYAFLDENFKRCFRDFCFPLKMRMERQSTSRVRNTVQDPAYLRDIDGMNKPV
T2 sequence (P41143 whole entry): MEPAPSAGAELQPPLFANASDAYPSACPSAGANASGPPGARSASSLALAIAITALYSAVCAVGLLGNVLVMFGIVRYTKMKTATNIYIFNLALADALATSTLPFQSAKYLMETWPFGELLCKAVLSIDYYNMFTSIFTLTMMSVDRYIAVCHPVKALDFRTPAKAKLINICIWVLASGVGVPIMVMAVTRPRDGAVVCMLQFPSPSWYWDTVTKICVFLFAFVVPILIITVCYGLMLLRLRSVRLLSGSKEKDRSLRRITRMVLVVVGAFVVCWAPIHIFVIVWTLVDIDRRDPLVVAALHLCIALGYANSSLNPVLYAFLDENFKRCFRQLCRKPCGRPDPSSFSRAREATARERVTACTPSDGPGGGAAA

SMILES | Kb [1] | Kb ([2]; cloned human δ receptor, CHO cell membrane homogenates, agonist DPDPE, 10 μM GDP, mean ± SE, read-out: δ, DPDPE Ke) | Kb [3] | δ/κ [3] | μ/κ [3] | Kb [1, 4] | Kb [2] | Kb [3, 5] | μ, DAMGO Ke [1, 6] | δ, DPDPE Ke [2, 7] | κ, U69,593 Ke [3, 8]
CN1CCC2(c3cccc(O)c3)CCCCC2(C)C1 (centres unmarked) [6a, N-Methyl-4a-(3-hydroxyphenyl)-8a-methyloctahydroisoquinoline] | 99.4 ± 28.3 nM | 477 ± 137 nM | 3.37 ± 0.47 nM | 141 | 29 |  |  |  |  |  | 
CC12CCCCC1(c1cccc(O)c1)CCN(CCc1ccccc1)C2 (centres unmarked) [6b, N-Phenethyl-4a-(3′-hydroxyphenyl)-8a-methyloctahydroisoquinoline] |  |  |  | 7 | 0.3 | 0.84 ± 0.22 nM | 18.9 ± 5.2 nM | 2.84 ± 0.97 nM |  |  | 
CC12CCCCC1(c1cccc(O)c1)CCN(CCCc1ccccc1)C2 (centres unmarked) [6c, N-(3-Phenpropyl)-4a-(3-hydroxyphenyl)-8a-methyloctahydroisoquinoline] |  |  |  | 12 | 0.8 |  |  |  | 0.80 ± 0.10 nM | 12.4 ± 2.9 nM | 1.03 ± 0.14 nM
CC12CCC(NC(=O)CCN3CCCCC3)CC1(c1cccc(O)c1)CCN(CCCc1ccccc1)C2 (centres unmarked) [6d, N-(4a-(3-Hydroxyphenyl)-8a-methyl-2-(3-phenylpropyl)octahydroisoquinolin-6-yl]-3-piperidin-1-yl-propionamide] |  |  |  | 46 | 154 | 41.7 ± 7.8 nM | 12.3 ± 3.1 nM | 0.27 ± 0.08 nM |  |  | 
CC12CCC(NC(=O)CCN3CCc4ccccc4C3)CC1(c1cccc(O)c1)CCN(CCCc1ccccc1)C2 (centres unmarked) [6e, 3-(3,4-Dihydro-1H-isoquinolin-2-yl)-N-(4a-(3-hydroxyphenyl)-8a-methyl-2-(3-phenylpropyl)octahydroisoquinolin-6-yl]propionamide] |  |  |  | 21 | 45 | 9.82 ± 3.7 nM | 4.56 ± 1.2 nM | 0.22 ± 0.02 nM |  |  | 
CC12CCC(NC(=O)C3(c4ccccc4)CCCC3)CC1(c1cccc(O)c1)CCN(CCCc1ccccc1)C2 (centres unmarked) [6f, 1-Phenylcyclopentanecarboxylic Acid [4a-(3-Hydroxyphenyl)-8a-methyl-2-(3-phenylpropyl)octahydroisoquinolin-6-yl]amide] |  |  |  | 3 | 0.8 | 1.46 ± 0.15 nM | 6.46 ± 2.3 nM | 1.93 ± 0.48 nM |  |  | 
CC12CCC(NC(=O)c3cc4ccccc4s3)CC1(c1cccc(O)c1)CCN(CCCc1ccccc1)C2 (centres unmarked) [6g] |  |  |  | 2 | 25 |  |  |  | 11.3 ± 2.0 nM | 1.01 ± 0.22 nM | 0.46 ± 0.13 nM
